This test relates to P388 leukemia ip, CD2F1 mice, survival T/C. The test is described as follows: NCI In Vivo Anticancer Drug Screen. Data for tumor model P388 Leukemia (intraperitoneal) in CD2F1 (CDF1) mice. The conditions noted are these: endpoint: median survival time, higher = longer survival. The procedure, abridged:
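Mice carrying the transplanted tumor received test compound or vehicle. Survival was recorded in each group, and the value is the treated-group measurement divided by that of the vehicle-treated control group.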

Setting [1] is: dose: 60.0 mg/kg/injection, schedule: Q01DX005 (ip), vehicle: Klucel (hydroxypropylcellulose) (HPC).
Setting [2] is: dose: 120.0 mg/kg/injection, schedule: Q01DX005 (ip), vehicle: Klucel (hydroxypropylcellulose) (HPC).
[3] abbreviates: dose: 240.0 mg/kg/injection, schedule: Q01DX005 (ip), vehicle: Klucel (hydroxypropylcellulose) (HPC).
The mark [4] stands for this setting: dose: 60.0 mg/kg/injection, schedule: Q01DX005 (ip), vehicle: saline with Tween-80.
The mark [5] stands for this setting: dose: 120.0 mg/kg/injection, schedule: Q01DX005 (ip), vehicle: saline with Tween-80.
Where [6] appears, read: dose: 240.0 mg/kg/injection, schedule: Q01DX005 (ip), vehicle: saline with Tween-80.
[7] abbreviates: dose: 50.0 mg/kg/injection, schedule: Q01DX009 (ip), vehicle: saline with Tween-80.
[8] abbreviates: dose: 100.0 mg/kg/injection, schedule: Q01DX009 (ip), vehicle: saline with Tween-80.
Setting [9] is: dose: 200.0 mg/kg/injection, schedule: Q01DX009 (ip), vehicle: saline with Tween-80.
Setting [10] is: dose: 12.5 mg/kg/injection, schedule: Q01DX009 (ip), vehicle: saline with Tween-80.
[11] abbreviates: dose: 25.0 mg/kg/injection, schedule: Q01DX009 (ip), vehicle: saline with Tween-80.
Setting [12] is: dose: 50.0 mg/kg/injection, schedule: Q01DX005 (ip), vehicle: Klucel (hydroxypropylcellulose) (HPC).
[13] abbreviates: dose: 100.0 mg/kg/injection, schedule: Q01DX005 (ip), vehicle: Klucel (hydroxypropylcellulose) (HPC).
Where [14] appears, read: dose: 50.0 mg/kg/injection, schedule: Q01DX009 (ip), vehicle: saline.
Setting [15] is: dose: 100.0 mg/kg/injection, schedule: Q01DX009 (ip), vehicle: saline.

The structures appear in SMILES notation. Several values for one entry are separate records, joined by “and”; a condition that tells them apart may be missing. Identical values can stand only once. Inconclusive results and toxic doses are left out.

`CC1(OC(=O)c2ccccc2)CC(C)(C)[N+]([O-])=N1` (stereo not given): the T/C runs as follows: (dose: 12.5 mg/kg/injection, schedule: Q01DX005 (ip), vehicle: other) 97 % of control; (dose: 25.0 mg/kg/injection, schedule: Q01DX005 (ip), vehicle: other) 98 % of control; (dose: 50.0 mg/kg/injection, schedule: Q01DX005 (ip), vehicle: other) 100 % of control; (dose: 100.0 mg/kg/injection, schedule: Q01DX005 (ip), vehicle: other) 90 % of control; (dose: 200.0 mg/kg/injection, schedule: Q01DX005 (ip), vehicle: other) 93 % of control.

For the compound `O=C1C(Cc2ccccc2)C(=O)N2c3ccccc3C=CC2N1c1ccccc1` (stereo not given), the T/C reads like this: under setting [1], 98 % of control; under setting [2], 97 % of control; under setting [3], 89 % of control.

In the case of `O=C(O)CNC(=O)C(=O)c1c[nH]c2ccc([N+](=O)[O-])cc12`, the T/C under setting [4] was 97 % of control, the T/C under setting [5] was 97 % of control and the T/C under setting [6] is 94 % of control.

Consider `Cc1cc(C)cc(CSCc2c(CSCc3cc(C)cc(C)c3)c(CSCc3cc(C)cc(C)c3)c(CSCc3cc(C)cc(C)c3)c(CSCc3cc(C)cc(C)c3)c2CSCc2cc(C)cc(C)c2)c1`, for which the T/C was 102 % of control under setting [7], 100 % of control under setting [8] and 105 % of control under setting [9].

As for `CSc1nc(COC(=O)NC(C)C)c(COC(=O)NC(C)C)n1Cc1ccccc1`, the T/C is 98 % of control (dose: 12.5 mg/kg/injection, schedule: Q01DX005 (ip), vehicle: saline with Tween-80); 101 % of control (dose: 25.0 mg/kg/injection, schedule: Q01DX005 (ip), vehicle: saline with Tween-80); 100 % of control and 110 % of control (dose: 50.0 mg/kg/injection, schedule: Q01DX005 (ip), vehicle: saline with Tween-80); 98 % of control and 111 % of control (dose: 100.0 mg/kg/injection, schedule: Q01DX005 (ip), vehicle: saline with Tween-80); 116 % of control (dose: 200.0 mg/kg/injection, schedule: Q01DX005 (ip), vehicle: saline with Tween-80).

Turning to `O=C(c1ccccc1)c1ccc([N+](=O)[O-])cc1`, the T/C (dose: 3.13 mg/kg/injection, schedule: Q01DX009 (ip), vehicle: saline with Tween-80) was 97 % of control; the T/C (dose: 6.25 mg/kg/injection, schedule: Q01DX009 (ip), vehicle: saline with Tween-80) is 95 % of control; the T/C under setting [10] is 91 % of control; the T/C under setting [11] is 91 % of control; the T/C (dose: 50.0 mg/kg/injection, schedule: Q04DX003 (ip), vehicle: saline with Tween-80) is 95 % of control; the T/C (dose: 100.0 mg/kg/injection, schedule: Q04DX003 (ip), vehicle: saline with Tween-80) was 100 % of control. Further, the T/C (dose: 200.0 mg/kg/injection, schedule: Q04DX003 (ip), vehicle: saline with Tween-80) was 109 % of control.

For the compound `COc1cc2c(cc1-c1coc3cc(O)ccc3c1=O)OCO2`, the T/C is 90 % of control (dose: 1.1 mg/kg/injection, schedule: Q01DX005 (ip), vehicle: Klucel (hydroxypropylcellulose) (HPC)); 86 % of control (dose: 2.13 mg/kg/injection, schedule: Q01DX005 (ip), vehicle: Klucel (hydroxypropylcellulose) (HPC)); 92 % of control and 96 % of control (dose: 4.25 mg/kg/injection, schedule: Q01DX005 (ip), vehicle: Klucel (hydroxypropylcellulose) (HPC)); 88 % of control and 94 % of control (dose: 8.5 mg/kg/injection, schedule: Q01DX005 (ip), vehicle: Klucel (hydroxypropylcellulose) (HPC)); 86 % of control (dose: 68.0 mg/kg/injection, schedule: Q01DX005 (ip), vehicle: Klucel (hydroxypropylcellulose) (HPC)).

As to `CCOc1nc2ccccc2nc1OCC`, the T/C by setting is: under setting [12], 95 % of control; under setting [13], 104 % of control.

With `c1coc(-c2cc(-c3cc(-c4ccco4)on3)no2)c1`, the T/C under setting [1] was 105 % of control, the T/C under setting [2] was 100 % of control and the T/C under setting [3] is 107 % of control.

Consider `COc1ccc(/C=C2\SC(=S)N(C3CC3)C2=O)cc1OC`, for which the T/C is 94 % of control under setting [12] and 88 % of control under setting [13].

`O=c1oc2ccccc2cc1-n1nnc2ccccc21`: the T/C reads like this: under setting [4], 98 % of control; under setting [5], 90 % of control; under setting [6], 90 % of control.

As to `CCN(CC)c1cccc(OC(=O)Nc2cccc(Cl)c2Cl)c1`, the T/C was 100 % of control under setting [4], 100 % of control under setting [5] and 92 % of control under setting [6].

Take `COc1ccc(/C=N/NC(=O)C(=O)N/N=C/c2ccc(OC)c(S(=O)(=O)O)c2)cc1S(=O)(=O)O`: the T/C is, setting by setting: under setting [14], 102 % of control; under setting [15], 104 % of control; (dose: 200.0 mg/kg/injection, schedule: Q01DX009 (ip), vehicle: saline) 109 % of control.

For `C=CC[n+]1cc2c3ccccc3c(N)cc2c2ccccc21`, the T/C by setting is: (dose: 1.56 mg/kg/injection, schedule: Q04DX003 (ip), vehicle: water) 107 % of control; (dose: 3.13 mg/kg/injection, schedule: Q04DX003 (ip), vehicle: water) 116 % of control; (dose: 6.25 mg/kg/injection, schedule: Q04DX003 (ip), vehicle: water) 114 % of control; (dose: 12.5 mg/kg/injection, schedule: Q04DX003 (ip), vehicle: other) 106 % of control; (dose: 12.5 mg/kg/injection, schedule: Q04DX003 (ip), vehicle: water) 109 % of control.

Take `CCn1c2ccccc2c2cc(N=Nc3ccnc4c(O)cccc34)ccc21`: the T/C under setting [10] was 119 % of control; the T/C under setting [11] was 117 % of control; the T/C under setting [8] was 108 % of control and 97 % of control.

`COc1cc(C(=O)OC(CN2CCOCC2)Cn2nnc3c(OC)c(OC)c(OC)cc3c2=O)cc(OC)c1OC` (stereo not given): the T/C by setting is: (dose: 50.0 mg/kg/injection, schedule: Q01DX009 (ip), vehicle: water) 100 % of control; (dose: 100.0 mg/kg/injection, schedule: Q01DX009 (ip), vehicle: water) 100 % of control; (dose: 200.0 mg/kg/injection, schedule: Q01DX009 (ip), vehicle: water) 108 % of control.

`O=C(O)c1ccc(OCc2ccccc2)cc1`: the T/C runs as follows: under setting [14], 93 % of control; under setting [15], 93 % of control.

With `N#CCCN(CCCN1CCOCC1)CN1C(=O)c2ccccc2C1=O`, the T/C is 98 % of control (dose: 50.0 mg/kg/injection, schedule: Q01DX009 (ip), vehicle: Klucel (hydroxypropylcellulose) (HPC)); 91 % of control (dose: 100.0 mg/kg/injection, schedule: Q01DX009 (ip), vehicle: Klucel (hydroxypropylcellulose) (HPC)); 99 % of control (dose: 400.0 mg/kg/injection, schedule: Q01DX009 (ip), vehicle: Klucel (hydroxypropylcellulose) (HPC)).

As for `[Fe].[c-]1[c-][c-][c-](CNc2ncnc3nc[nH]c23)[c-]1.[c-]1[c-][c-][cH-][c-]1`, the T/C is 97 % of control (dose: 12.5 mg/kg/injection, schedule: Q01DX005 (ip), vehicle: Klucel (hydroxypropylcellulose) (HPC)); 100 % of control (dose: 25.0 mg/kg/injection, schedule: Q01DX005 (ip), vehicle: Klucel (hydroxypropylcellulose) (HPC)); 86 % of control under setting [12]; 91 % of control under setting [13].

Turning to `[Se]=[Re]=[Se]`, the T/C under setting [4] was 96 % of control, the T/C under setting [5] is 98 % of control and the T/C under setting [6] was 109 % of control.

On to `CCOC(=O)CCC(NC(=O)c1ccc(NCCC(C)=O)cc1)C(=O)OCC` (stereo not given), for which the T/C is 104 % of control under setting [7]; 105 % of control under setting [8]; 104 % of control under setting [9]; 105 % of control (dose: 400.0 mg/kg/injection, schedule: Q01DX009 (ip), vehicle: saline with Tween-80).

With `Cn1c(=O)[nH]n(C2Cn3c(=O)n(C)c(=O)n3-c3ccccc32)c1=O` (stereo not given), the T/C under setting [12] is 115 % of control; the T/C under setting [13] is 99 % of control; the T/C (dose: 200.0 mg/kg/injection, schedule: Q01DX005 (ip), vehicle: Klucel (hydroxypropylcellulose) (HPC)) was 96 % of control.

Turning to `O=C(O)c1[nH]c(=O)[nH]c(=O)c1F`, the T/C reads like this: (dose: 2.5 mg/kg/injection, schedule: Q01DX010 (ip), vehicle: saline) 110 % of control; (dose: 5.0 mg/kg/injection, schedule: Q01DX010 (ip), vehicle: saline) 160 % of control; (dose: 16.0 mg/kg/injection, schedule: Q01DX009 (ip), vehicle: saline) 100 % of control.

(Values after PubChem BioAssay AID330 (DTP/NCI, 2004).)
